In patent US12692236B2, “Small molecule modulators of sigma-1 and sigma-2 receptors and uses thereof” (Northwestern University, priority 2018, dated 2026):

How the values were obtained:
sigma-2 receptor = sigma-2 receptor (Homo sapiens, UniProt Q5BJF2); experiment: sigma-2 receptor binding affinity (Ki); settings: for Ki: read-out: Ki (nM) Sigma-2
sigma-1 receptor = sigma-1 receptor (Homo sapiens, UniProt Q99720); experiment: sigma-1 receptor binding affinity (Ki); settings: for Ki: read-out: Ki (nM) Sigma-1
sigma-1 receptor, sequence (Q99720 whole entry, species assumed): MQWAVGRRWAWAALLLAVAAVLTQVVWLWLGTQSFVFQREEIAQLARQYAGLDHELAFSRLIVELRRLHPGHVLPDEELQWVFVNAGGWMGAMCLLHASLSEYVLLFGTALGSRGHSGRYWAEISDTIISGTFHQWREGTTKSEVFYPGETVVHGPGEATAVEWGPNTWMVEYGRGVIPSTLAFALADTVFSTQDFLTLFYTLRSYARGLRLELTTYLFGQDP

sigma-2 receptor, sequence (Q5BJF2 whole entry, species assumed): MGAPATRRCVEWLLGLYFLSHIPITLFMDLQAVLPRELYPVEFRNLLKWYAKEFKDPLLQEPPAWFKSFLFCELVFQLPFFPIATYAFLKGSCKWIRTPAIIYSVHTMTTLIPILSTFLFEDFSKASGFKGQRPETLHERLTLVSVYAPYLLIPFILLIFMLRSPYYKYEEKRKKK

Structure (SMILES) | Ki (sigma-2 receptor) [nM] | Ki (sigma-1 receptor) [nM] | selectivity of sigma-2 ligands against sigma-1 (in words) (sigma-2 receptor) | more potent against sigma-2 (sigma-2 receptor; relative to earlier dimethyl amide analogs) | activity against sigma-2 (in words) (sigma-2 receptor) | activity against sigma-1 (in words) (sigma-1 receptor) | selectivity for sigma-2 over sigma-1 (sigma-2 receptor) | selectivity sigma-1 versus sigma-2 (in words) (sigma-1 receptor)
CCCn1nc(C(=O)N(C)C)c2c1CCC(OCc1ccc(F)cc1)C2 (centres unmarked) [compound 200622, 5-((4-fluorobenzyl)oxy)-N,N-dimethyl-1-propyl-4,5,6,7-tetrahydro-1H-indazole-3-carboxamide] | > 10000 | > 10000 |  |  | completely lost | completely lost |  | 
O=C(c1nn(-c2ccccc2)c2c1CC(NCCc1cccc(O)c1)CC2)N1CCCCC1 (centres unmarked) [compound 201681, (5-((3-Hydroxyphenethyl)amino)-1-phenyl-4,5,6,7-tetrahydro-1H-indazol-3-yl)(piperidin-1-yl)methanone] | > 10000 | 204 |  |  |  |  |  | 
CCCn1nc(C(=O)N(C)C)c2c1CCC(SCc1ccc(F)cc1)C2 (centres unmarked) [compound 200624, 5-((4-fluorobenzyl)thio)-N,N-dimethyl-1-propyl-4,5,6,7-tetrahydro-1H-indazole-3-carboxamide] | > 10000 | > 10000 |  |  | completely lost | completely lost |  | 
CCCn1nc(C(=O)N2CCCCC2)c2c1CCC(N1CCN(C)CC1)C2 (centres unmarked) [compound 196337, (5-(4-methylpiperazin-1-yl)-1-propyl-4,5,6,7-tetrahydro-1H-indazol-3-yl)(piperidin-1-yl)methanone] | 34 | 192 |  |  | great overall potency |  | about 5 fold | 

Continued, in another order:

Ki (sigma-2 receptor) [nM] | Ki (sigma-1 receptor) [nM] | selectivity of sigma-2 ligands against sigma-1 (in words) (sigma-2 receptor) | more potent against sigma-2 (sigma-2 receptor; relative to earlier dimethyl amide analogs) | activity against sigma-2 (in words) (sigma-2 receptor) | activity against sigma-1 (in words) (sigma-1 receptor) | selectivity for sigma-2 over sigma-1 (sigma-2 receptor) | Structure (SMILES) | selectivity sigma-1 versus sigma-2 (in words) (sigma-1 receptor)
> 10000 | 588 |  |  |  |  |  | NC(=O)c1ccc(-n2nc3c(c2C(=O)N2CCCCC2)CC(NCCc2ccccc2)CC3)cc1 (centres unmarked) [compound 201242, 4-(5-(Phenethylamino)-3-(piperidine-1-carbonyl)-4,5,6,7-tetrahydro-2H-indazol-2-yl)benzamide] | 
561 | 465 |  |  |  |  |  | NC(=O)c1ccc(-n2nc(C(=O)N3CCCCC3)c3c2CCC(NCCc2ccccc2)C3)cc1 (centres unmarked) [compound 201243, 4-(5-(Phenethylamino)-3-(piperidine-1-carbonyl)-4,5,6,7-tetrahydro-1H-indazol-1-yl)benzamide] | 
430 | > 10000 |  |  |  |  |  | CCCn1nc(C(=O)N(C)C)c2c1CCC(NCCc1ccc3c(c1)OCO3)C2 (centres unmarked) [compound 200876, 5-((2-(benzo[d][1,3]dioxol-5-yl)ethyl)amino)-N,N-dimethyl-1-propyl-4,5,6,7-tetrahydro-1H-indazole-3-carboxamide] | 
595 | 1400 |  |  |  |  |  | CCCn1nc(C(=O)N(C)C)c2c1CCC(NCCc1ccc(C(F)(F)F)cc1)C2 (centres unmarked) [compound 200878, N,N-dimethyl-1-propyl-5-((4-(trifluoromethyl)phenethyl)amino)-4,5,6,7-tetrahydro-1H-indazole-3-carboxamide] | 
273 | > 10000 | excellent selectivity | about 8 fold |  |  |  | CCCn1nc(C(=O)N2CCCCC2)c2c1CCC(NCCc1ccc(O)cc1)C2 (centres unmarked) [compound 200643, (5-((4-Hydroxyphenethyl)amino)-1-propyl-4,5,6,7-tetrahydro-1H-indazol-3-yl)(piperidin-1-yl)methanone] | 
91 | 131 |  |  |  |  |  | O=C(c1nn(-c2ccccc2)c2c1CC(NCCc1ccc(F)cc1)CC2)N1CCCCC1 (centres unmarked) [compound 201667, (5-((4-Fluorophenethyl)amino)-1-phenyl-4,5,6,7-tetrahydro-1H-indazol-3-yl)(piperidin-1-yl)methanone] | equipotent inhibitor against both sigma receptors
